Patent US10023592B2, “Bromodomain inhibitors” (Celgene Quanticel Research, Inc., priority 2013, dated 2018)
pIC50: −log10 of the molar value.

Columns and labels:
[1] = molecular target: BRD4(BD1) (Homo sapiens (Human), UniProt O60885); assay: In vitro enzyme inhibition assay (BRD4 AlphaScreen); assay type: binding; conditions: class symbols A/B/C
Summary of the method: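 AlphaScreen proximity readout, using streptavidin donor and Ni-chelate acceptor beads at 5 μg/mL final, monitors biotin-H4 tetraacetylated peptide interaction with purified His-tagged BRD4.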

[2] = system: Raji, human Burkitts lymphoma cells; assay: Cell-MTS proliferation assay, Raji; assay type: cell-based; conditions: Cell-MTS, 168 hr, class symbols A/B/C
Experimental: (§1) The Cell-MTS assay is a 7-day plate-based colorimetric assay which quantifies the amount of newly generated NADH in the presence or absence of test compound. The NADH level is used for the quantification of cancer cell proliferation.
(§2) Established cancer cell lines with a variety of driving mutations were obtained from American Type Culture Collection (ATCC) and routinely passaged according to ATCC protocols. For routine assay, these cells were seeded at densities which enabled ˜90% confluence after 7 days of culture. Raji, human Burkitts lymphoma cells, (cMYC) were seeded at 15,000 cells per 96-well. HL-60, human proleukemia cells, (NRAS, p16, p53, c-Myc amplified) were seeded at 5,000 cells per 96-well. NCI-H460, human non-small cell lung cancer cells, (KRAS, PIK3CA, STLK11, p16) were seeded at 3,000 cells per 96-well. 24 hr after plating, cells received an 11-point dilution of test compound with final concentration ranges from 100 μM to 2.0 nM. […] At the end of this incubation period, 80 μL of media is removed and 20 μL of CellTiter 96® AQueous Non-Radioactive Cell Proliferation Assay soln (Promega) was added. The cells were incubated until the OD490 was >0.6. IC50 values were calculated using the IDBS XLfit software package and include background subtracted OD490 values and normalization to DMSO controls. Cellular proliferation IC50 values were uploaded and archived using the Chem Biography Platform.

[3] = system: HL-60, human proleukemia cells; assay: Cell-MTS proliferation assay, HL-60; assay type: cell-based; conditions: Cell-MTS, 168 hr, class symbols A/B/C
Experimental: as §1, §2

Compound: Cn1cc(-c2cc(NS(C)(=O)=O)ccc2Cl)c2ccccc2c1=O [Example 38, N-[4-chloro-3-(2-methyl-1-oxoisoquinolin-4-yl)phenyl] methanesulfonamide]
- pIC50 [1]: > 6.30
- pIC50 ([2]; Homo sapiens, Raji): 5.30 to 6.30
- pIC50 ([3]; Homo sapiens, HL-60): > 6.30

Compound: Cc1ccc(NS(C)(=O)=O)cc1-c1cn(C)c(=O)c2ccccc12 [Example 39, N-[4-methyl-3-(2-methyl-1-oxoisoquinolin-4-yl)phenyl]methanesulfonamide]
- pIC50 [1]: > 6.30
- pIC50 ([2]; Homo sapiens, Raji): 5.30 to 6.30
- pIC50 ([3]; Homo sapiens, HL-60): > 6.30

Compound: Cn1cc(-c2cc(NS(C)(=O)=O)cc(C(F)(F)F)c2)c2ccccc2c1=O [Example 40, N-[3-(2-methyl-1-oxoisoquinolin-4-yl)-5-(trifluoromethyl)phenyl] methanesulfonamide]
- pIC50 [1]: 5.30 to 6.30
- pIC50 ([2]; Homo sapiens, Raji): 5.30 to 6.30
- pIC50 ([3]; Homo sapiens, HL-60): 5.30 to 6.30

Compound: Cn1cc(-c2ccc3c(=O)n(C)cc(-c4cc(NS(C)(=O)=O)ccc4F)c3c2)cn1 [Example 41, N-[4-fluoro-3-[2-methyl-6-(1-methylpyrazol-4-yl)-1-oxoisoquinolin-4-yl]phenyl]methanesulfonamide]
- pIC50 [1]: > 6.30
- pIC50 ([2]; Homo sapiens, Raji): > 6.30
- pIC50 ([3]; Homo sapiens, HL-60): > 6.30

Compound: Cn1cc(-c2ccc3c(=O)n(C)cc(-c4cc(NS(C)(=O)=O)c(F)cc4F)c3c2)cn1 [Example 43, N-[2,4-difluoro-5-[2-methyl-6-(1-methylpyrazol-4-yl)-1-oxoisoquinolin-4-yl]phenyl]methane-sulfonamide]
- pIC50 [1]: > 6.30
- pIC50 ([2]; Homo sapiens, Raji): > 6.30
- pIC50 ([3]; Homo sapiens, HL-60): > 6.30

Compound: Cn1cc(-c2cccc(NS(C)(=O)=O)c2)c2cc(F)ccc2c1=O [Example 47, N-[3-(6-fluoro-2-methyl-1-oxoisoquinolin-4-yl)phenyl]methanesulfonamide]
- pIC50 [1]: > 6.30
- pIC50 ([2]; Homo sapiens, Raji): > 6.30
- pIC50 ([3]; Homo sapiens, HL-60): > 6.30

Compound: Cn1cc(-c2cccc(S(N)(=O)=O)c2)c2cc(F)ccc2c1=O [Example 48, 3-(6-fluoro-2-methyl-1-oxoisoquinolin-4-yl) benzenesulfonamide]
- pIC50 [1]: 5.30 to 6.30
- pIC50 [2]: 5.30 to 6.30
- pIC50 [3]: 5.30 to 6.30

Compound: Cn1cc(-c2cccc(NS(C)(=O)=O)c2)c2ccncc2c1=O [Example 51, N-[3-(2-methyl-1-oxo-2,7-naphthyridin-4-yl)phenyl]methanesulfonamide]
- pIC50 [1]: 5.30 to 6.30
- pIC50 ([2]; Homo sapiens, Raji): < 5.30
- pIC50 ([3]; Homo sapiens, HL-60): 5.30 to 6.30

Compound: CCS(=O)(=O)Nc1cccc(-c2cn(C)c(=O)c3cnccc23)c1 [Example 52, N-[3-(2-methyl-1-oxo-2,7-naphthyridin-4-yl)phenyl] ethanesulfonamide]
- pIC50 [1]: 5.30 to 6.30
- pIC50 ([2]; Homo sapiens, Raji): 5.30 to 6.30
- pIC50 ([3]; Homo sapiens, HL-60): 5.30 to 6.30

Compound: CCNS(=O)(=O)c1cccc(-c2cn(C)c(=O)c3cnccc23)c1 [Example 53, N-ethyl-3-(2-methyl-1-oxo-2,7-naphthyridin-4-yl) benzenesulfonamide]
- pIC50 [1]: 5.30 to 6.30
- pIC50 [2]: < 5.30
- pIC50 [3]: < 5.30

Compound: Cn1cc(-c2cccc(NS(C)(=O)=O)c2)c2ccc(F)cc2c1=O [Example 58, N-[3-(7-fluoro-2-methyl-1-oxoisoquinolin-4-yl)phenyl]methanesulfonamide]
- pIC50 [1]: > 6.30
- pIC50 ([2]; Homo sapiens, Raji): 5.30 to 6.30
- pIC50 ([3]; Homo sapiens, HL-60): > 6.30

Compound: CCNS(=O)(=O)c1cccc(-c2cn(C)c(=O)c3cc(F)ccc23)c1 [Example 59, N-ethyl-3-(7-fluoro-2-methyl-1-oxoisoquinolin-4-yl) benzenesulfonamide]
- pIC50 [1]: 5.30 to 6.30
- pIC50 [2]: 5.30 to 6.30
- pIC50 [3]: 5.30 to 6.30

Compound: CCS(=O)(=O)Nc1cccc(-c2cn(C)c(=O)c3cc(F)ccc23)c1 [Example 62, N-[3-(7-fluoro-2-methyl-1-oxoisoquinolin-4-yl)phenyl]ethanesulfonamide]
- pIC50 [1]: > 6.30
- pIC50 ([2]; Homo sapiens, Raji): 5.30 to 6.30
- pIC50 ([3]; Homo sapiens, HL-60): > 6.30

Compound: Cn1cc(-c2cc(S(C)(=O)=O)ccc2OCC2CC2)c2cc(F)ccc2c1=O [Example 90, 4-[2-(cyclopropylmethoxy)-5-methylsulfonylphenyl]-6-fluoro-2-methylisoquinolin-1-one]
- pIC50 [1]: > 6.30
- pIC50 ([2]; Homo sapiens, Raji): > 6.30
- pIC50 ([3]; Homo sapiens, HL-60): > 6.30

Compound: Cn1cc(-c2cccc(NS(C)(=O)=O)c2)ccc1=O [Example 94, N-[3-(1-methyl-6-oxopyridin-3-yl)phenyl]methanesulfonamide]
- pIC50 [1]: 5.30 to 6.30
- pIC50 ([2]; Homo sapiens, Raji): > 6.30
- pIC50 ([3]; Homo sapiens, HL-60): < 5.30
